This note sets out measurements from article PMC11141402, “Cyclic β^2,3-amino acids improve the serum stability of macrocyclic peptide inhibitors targeting the SARS-CoV-2 main protease” (Bulletin of the Chemical Society of Japan, 2024).

*1 amine or outer side, *2 acyl side, *3 side chain or, on linkers, in order; H or OH if unused. Where a SMILES comes first, the peptide text is derived from it. Bridges are numbered along the chain shown (N, C = ends). [ ]: non-standard residue; d: D form. ACHC(1S,2S) = O=C([C@H]1CCCC[C@@H]1N[*:1])[*:2]; X1 = O=C([C@@H]1CCC[C@@H]1N[*:1])[*:2]

Series [1] deals with T1, SARS-CoV-2 M^pro (Severe acute respiratory syndrome coronavirus 2, UniProt P0DTD1).
T1 construct: also known as 3-chymotrypsin-like cysteine protease (3CL^pro) and nonstructural protein 5 (nsp5)
The series can be described thus: biochemical. The series is classed as binding. The conditions noted are these: for kon: read-out: ka (kinetic association).

Series [2] concerns the target T1, SARS-CoV-2 M^pro. The series can be described thus: biochemical.
Series [3] can be described thus: Serum stability assay in human serum, LC/MS. The series is classed as in vitro ADME. Conditions: 37 °C, peptide 10 μM, up to 168 h, mean ± s.d. (n = 3), read-out: t1/2 in serum (converted). How it is done: A synthetic macrocyclic peptide (10 μM) and a serum-resistant internal standard peptide consisting only of D-amino acids (NH2-PEG5-wstndwstnd-PEG5-CONH2, 5 μM) were mixed and incubated in human serum (Cosmo Bio, 12181201) at 37 °C for up to 168 h.[16] At each time point, 4 μL of the mixture was removed and quenched by adding 12 μL of methanol, followed by incubation on ice for 15 min. Following centrifugation (15,000 × g, 25 °C, 10 min), 10 μL of the supernatant was mixed with 40 μL of 1% (v/v) TFA in water. Following centrifugation (15,000 × g, 25 °C, 5 min), the supernatant was analyzed using LC/MS employing a reverse-phase column (ACQUITY UPLC BEH C18, 1.7 μm, 2.1 × 150 mm; Waters) and a Xevo G2-XS QTof system (Waters) with a linear gradient from 1% B to 61% B. Buffer A: water with 0.1% (v/v) formic acid; buffer B: acetonitrile with 0.1% (v/v) formic acid. The percentages of remaining peptides were determined by using the peak area integration of the chromatograms. The obtained LC/MS data were analyzed using a MassLynx 4.1 (Waters).

`CC(C)C[C@@H]1NC(=O)[C@H](CC(N)=O)NC(=O)[C@H](Cc2c[nH]cn2)NC(=O)[C@H](Cc2ccccc2)NC(=O)[C@@H]2CCC[C@@H]2NC(=O)[C@H](Cc2c[nH]cn2)NC(=O)[C@H](Cc2ccccc2)NC(=O)[C@@H](Cc2ccc(O)cc2)NC(=O)CSC[C@H](C(N)=O)NC(=O)[C@H](Cc2c[nH]cn2)NC(=O)[C@H](CC(C)C)NC(=O)[C@H](CCCNC(=N)N)NC(=O)[C@H](Cc2ccccc2)NC1=O` [BM5, ^AcyFHβ^1FHNLFRLHc-NH2] ({CH2CO}-[dY]FH[X1]FHNLFRLH[dC]-NH2; thioether N-13): at SARS-CoV-2 M^pro [1], the Kd came to 22 nM and the kon was determined as 36000 M⁻¹ s⁻¹. The same compound returned a concentration for half-maximal inhibition (IC50) on SARS-CoV-2 M^pro [2] of 360 nM.

Consider `CC(C)C[C@@H]1NC(=O)[C@H](C)NC(=O)[C@H](CC(N)=O)NC(=O)[C@H](CC(=O)O)NC(=O)[C@H](Cc2ccc(O)cc2)NC(=O)[C@H](CCCNC(=N)N)NC(=O)[C@H](Cc2c[nH]cn2)NC(=O)[C@H](Cc2ccccc2)NC(=O)[C@@H](Cc2ccc(O)cc2)NC(=O)CSC[C@H](C(N)=O)NC(=O)[C@H](Cc2ccc(O)cc2)NC(=O)[C@H](C(C)C)NC1=O` [BM3A, ^AcyFHRYDNA LVYc-NH2] ({CH2CO}-[dY]FHRYDNALVY[dC]-NH2; thioether N-12), for which, in series [3], the half-life at 10 μM is 4.6 h. On SARS-CoV-2 M^pro [1], this compound had a dissociation constant Kd above 10000 nM. At SARS-CoV-2 M^pro [2], this compound displayed a half-maximal inhibitory concentration (IC50) above 25000 nM.

Take `CC(C)C[C@@H]1NC(=O)[C@H](CO)NC(=O)[C@H](CCCNC(=N)N)NC(=O)[C@H](Cc2ccccc2)NC(=O)[C@@H]2CCC[C@@H]2NC(=O)[C@H](Cc2c[nH]cn2)NC(=O)[C@H](Cc2ccccc2)NC(=O)[C@@H](Cc2ccc(O)cc2)NC(=O)CSC[C@H](C(N)=O)NC(=O)CNC(=O)[C@H](Cc2ccccc2)NC(=O)[C@H](C(C)C)NC(=O)[C@H](Cc2ccccc2)NC1=O` [BM6, ^AcyFHβ^1FRSLFVFGc-NH2] ({CH2CO}-[dY]FH[X1]FRSLFVFG[dC]-NH2; thioether N-13): on SARS-CoV-2 M^pro [1], the dissociation constant (Kd) came out at 2.9 nM and the kon stood at 260000 M⁻¹ s⁻¹. For the same compound, on SARS-CoV-2 M^pro [2], the IC50 was found to be 2150 nM.

As for `CC(C)C[C@@H]1NC(=O)[C@H](Cc2c[nH]cn2)NC(=O)[C@H](Cc2ccc(O)cc2)NC(=O)[C@@H]2CCC[C@@H]2NC(=O)[C@H](CC(=O)O)NC(=O)[C@H](Cc2ccccc2)NC(=O)[C@@H](Cc2ccc(O)cc2)NC(=O)CSC[C@H](C(N)=O)NC(=O)[C@H](CCCNC(=N)N)NC(=O)[C@@H]2CCC[C@@H]2NC(=O)[C@H](CC(N)=O)NC1=O` [BM7, ^AcyFDβ^1YHLNβ^1Rc-NH2] ({CH2CO}-[dY]FD[X1]YHLN[X1]R[dC]-NH2; thioether N-11), the half-life at 10 μM in series [3] was above 168 h. At SARS-CoV-2 M^pro [1], the Kd worked out at 9.6 nM and the kon was determined as 170000 M⁻¹ s⁻¹. In addition, the IC50 on SARS-CoV-2 M^pro [2] worked out at 20 nM.

Take `CC(C)C[C@@H]1NC(=O)[C@H](Cc2c[nH]cn2)NC(=O)[C@H](Cc2ccc(O)cc2)NC(=O)[C@H](C)NC(=O)[C@H](CC(=O)O)NC(=O)[C@H](Cc2ccccc2)NC(=O)[C@@H](Cc2ccc(O)cc2)NC(=O)CSC[C@H](C(N)=O)NC(=O)[C@H](CCCNC(=N)N)NC(=O)[C@H](C)NC(=O)[C@H](CC(N)=O)NC1=O` [BM7A, ^AcyFDA YHLNA Rc-NH2] ({CH2CO}-[dY]FDAYHLNAR[dC]-NH2; thioether N-11): the half-life at 10 μM in series [3] is 4.2 h. For the same compound, at SARS-CoV-2 M^pro [1], the Kd was above 10000 nM. This compound also displayed a concentration for half-maximal inhibition (IC50) at SARS-CoV-2 M^pro [2] above 25000 nM.

For the compound `CC(C)C[C@@H]1NC(=O)[C@@H](Cc2ccc(O)cc2)NC(=O)CSC[C@H](C(N)=O)NC(=O)[C@H](Cc2ccccc2)NC(=O)[C@H](Cc2c[nH]cn2)NC(=O)[C@@H]2CCCN2C(=O)[C@H](CC(N)=O)NC(=O)[C@@H]2CCC[C@@H]2NC(=O)[C@H]([C@@H](C)O)NC(=O)[C@H](Cc2c[nH]cn2)NC1=O` [BM4, ^AcyLHTβ^1NPHFc-NH2] ({CH2CO}-[dY]LHT[X1]NPHF[dC]-NH2; thioether N-10), at SARS-CoV-2 M^pro [1], the equilibrium dissociation constant (Kd) is 1200 nM and the kon is 1700 M⁻¹ s⁻¹. This compound registered a half-inhibitory concentration (IC50) at SARS-CoV-2 M^pro [2] above 8000 nM.

Regarding `CC(C)C[C@@H]1NC(=O)[C@H]2CCCC[C@@H]2NC(=O)[C@H](CC(N)=O)NC(=O)[C@H](CC(=O)O)NC(=O)[C@H](Cc2ccc(O)cc2)NC(=O)[C@H](CCCNC(=N)N)NC(=O)[C@H](Cc2c[nH]cn2)NC(=O)[C@H](Cc2ccccc2)NC(=O)[C@@H](Cc2ccc(O)cc2)NC(=O)CSC[C@H](C(N)=O)NC(=O)[C@H](Cc2ccc(O)cc2)NC(=O)[C@H](C(C)C)NC1=O` [BM3, ^AcyFHRYDNβ^2LVYc-NH2] ({CH2CO}-[dY]FHRYDN[ACHC(1S,2S)]LVY[dC]-NH2; thioether N-12), the half-life at 10 μM in series [3] is 48 h. In addition, on SARS-CoV-2 M^pro [1], binding was characterised by a dissociation constant (Kd) of 7.7 nM and the kon came out at 810000 M⁻¹ s⁻¹. Further, the IC50 against SARS-CoV-2 M^pro [2] stood at 40 nM.

By Kd is commonly meant the equilibrium constant for the complex coming apart. Read a high Kd as lower affinity. By IC50 is commonly meant the concentration at which inhibition is half-maximal. A higher IC50 goes with a need for much substance.
